Reference: US5646027A, “Process for the production of gelatinase catalytic domain protein” (Warner-Lambert Company, priority 1994, dated 1997)

Assays:
[1] = biological target: T1, human 72 kDa gelatinase catalytic domain (GCD), reconstructed 19 kDa protein lacking propeptide, C-terminal domain and fibronectin-like insert, Seq ID No: 1 (Homo sapiens, UniProt P08253, DEL214-387); test: Inhibition of GCD cleavage of thiopeptolide by amino acid derivatives; assay type: biochemical; conditions: for GCD IC50: 17.3 nM GCD, 100 μM thiopeptolide, 10 mM CaCl2, 10 μM ZnCl2, MOPS pH 7.0; for GCD Ki: derived from IC50 by Ki=IC50/(1+[substrate]/Km), substrate 100 μM, Km 134 μM
T1 construct: starting at Ala at position -2 and ending at Ile at 168; made in house; host or cells: E. coli BL21(DE3)/pLysS
Method: The 100 μL assay mixture typically contained 50 mM MOPS (pH 7.0), 1 mM DTNB, 100 μM thiopeptolide, 10 mM CaCl2, 10 μM ZnCl2, and the enzyme.
The compounds tested for GCD inhibition were obtained from Bachem. […] Inhibition was initially tested at inhibitor concentrations of 100 and 500 μM. […] The determinations were repeated three times.

[2] = biological target: stromelysin catalytic domain (SCD), C-terminally truncated human stromelysin, Seq ID No: 2 (Homo sapiens, UniProt P08254); conditions: taken from Ye Q. Z., et al., J. Med. Chem., 1994;37:206-209; cited from earlier work
[3] = biological target: thiopeptolide Ac-Pro-Leu-Gly-thioester-Leu-Leu-Gly-OEt
[4] = biological target: fluorogenic peptide Dnp-Pro-Leu-Gly-Leu-Trp-Ala-D-Arg-NH2
[5] = biological target: fluorogenic peptide Mca-Pro-Leu-Gly-Leu-Dpa-Ala-Arg-NH2

T1 sequence (P08253 with tags, fused parts or gaps DEL214-387): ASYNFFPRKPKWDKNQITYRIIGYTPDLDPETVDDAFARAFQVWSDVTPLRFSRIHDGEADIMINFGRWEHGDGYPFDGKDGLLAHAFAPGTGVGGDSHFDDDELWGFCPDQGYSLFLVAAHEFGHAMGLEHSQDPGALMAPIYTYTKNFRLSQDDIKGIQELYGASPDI
stromelysin catalytic domain (SCD), C-terminally truncated stromelysin (enzyme), sequence (P08254 100-273 limits assumed): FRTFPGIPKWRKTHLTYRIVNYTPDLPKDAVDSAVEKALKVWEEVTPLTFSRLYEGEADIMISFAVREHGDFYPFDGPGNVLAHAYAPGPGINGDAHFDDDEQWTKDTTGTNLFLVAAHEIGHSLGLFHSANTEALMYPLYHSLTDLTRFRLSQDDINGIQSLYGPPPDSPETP
stromelysin catalytic domain (SCD), C-terminally truncated human stromelysin, Seq ID No: 2, sequence (P08254 100-273): as the sequence (P08254 100-273 limits assumed) above

Compound	GCD IC50 [1] [µM]	GCD Ki [1] [µM]	IC50 [2] [µM]	also measured
CC(C)(C)OC(=O)N[C@@H](Cc1c[nH]c2ccccc12)C(=O)O [Compound 5, Boc-L-Trp-OH]	57 ± 4	33	–	–
O=C(N[C@@H](Cc1ccccc1)C(=O)O)OCc1ccccc1 [Compound 9, Cbz-L-Phe-OH]	21 ± 1	12	–	–
O=C(N[C@H](Cc1ccc(O)cc1)C(=O)O)OCc1ccccc1 [Compound 8, Cbz-D-Tyr-OH]	> 500	–	–	–
O=C(N[C@@H](Cc1ccc(O)cc1)C(=O)O)OCc1ccccc1 [Compound 7, Cbz-L-Tyr-OH]	10.4 ± 0.4	6.0	–	–
N[C@@H](Cc1c[nH]c2ccccc12)C(=O)O [Compound 3, H-L-Trp-OH]	> 500	–	> 500	GCD inhibition (in words) ([1]; tested at 100 and 500 μM): not active
CC(C)(C)OC(=O)N[C@H](Cc1c[nH]c2ccccc12)C(=O)O [Compound 6, Boc-D-Trp-OH]	> 500	–	100 to 500	–
stromelysin catalytic domain (SCD), C-terminally truncated stromelysin (enzyme)	–	–	–	Catalytic efficiency kcat/Km in cleaving the thiopeptolide [3]: 7840 M⁻¹ s⁻¹; Catalytic efficiency kcat/Km in cleaving the fluorogenic peptide [4]: 13700 M⁻¹ s⁻¹; Catalytic efficiency kcat/Km in cleaving the fluorogenic peptide [5]: 10000 M⁻¹ s⁻¹
human 72 kDa gelatinase catalytic domain protein (GCD), without propeptide, C-terminal domain and fibronectin-like insert (enzyme)	–	–	–	Catalytic efficiency kcat/Km in cleaving the thiopeptolide [3]: 119000 M⁻¹ s⁻¹; Catalytic efficiency kcat/Km in cleaving the fluorogenic peptide [4]: 112000 M⁻¹ s⁻¹; Catalytic efficiency kcat/Km in cleaving the fluorogenic peptide [5]: 184000 M⁻¹ s⁻¹
O=C(N[C@H](Cc1ccccc1)C(=O)O)OCc1ccccc1 [Compound 10, Cbz-D-Phe-OH]	100 to 500	–	> 500	–
N[C@H](Cc1c[nH]c2ccccc12)C(=O)O [Compound 4, H-D-Trp-OH]	> 500	–	> 500	–
